{"source": "patent US5545719A", "about": "“Nerve growth peptides” (Neuromedica, Inc., priority 1994, dated 1996)", "key": {"[1]": {"system": "NB2a/d1 cells", "test": "Neurite sprouting assay (RSE), NB2a/d1 cells", "format": "cell-based, mouse", "conditions": "24 hrs in culture", "procedure": "(§1) Two cell lines were used. The mouse neuroblastoma cell line NB2a/dl was grown to confluency in P/100 plastic plates in the presence of Delbecco's medium with 10% fetal calf serum at 36.5° C. in a 5% CO2 atmosphere. Shea, T. B. et al., Dev. Brain Res., 21:307-314 (1985). An adrenergic mouse cell line based on PC12 pheochromocytoma cells was grown on collagen-coated culture plates using 85% RPMI 1640 and 10% heat-inactivated horse serum as the growth medium. Greene, L. A. et al., Proc. Natl. Acad. Sci. USA, 73:2424-2428 (1976). Cultures were grown in P-100 plates from an initial plating of 10^5 cells/ml under sterile conditions using 10 ml of incubation medium. Experimental cultures received a given concentration of protein fragment in 1 ml of serum-free medium. Control cultures received no fragment. Equal numbers of test and control plates were incubated at 35.5° C. in a 95%/5% air/CO2 humified atmosphere, and then examined for neurite growth patterns at 18, 24 and 48 hr after the plating in a phase microscope at a magnification of 100 or 200 ×, as specified.\nThe test to determine the degree of sprouting was carried out blind to determine (1) the total number of cells present in a given field of observation and (2) the percent of these that have zero and one or two or more process. Twelve microscope fields, each containing 50-100 cells, were randomly selected in each plate and cells counted according to the categories described above. The data for 12 fields in each of two plates for each added protein fragment were combined to obtain an analysis of the percent sprouting (i.e. the % of cells that have one or more processes after 24 hr in culture) for each protein fragment. The ratio, % sprouting in experimental cultures/% sprouting in control cultures, is an index of the \"relative sprouting effect\" (RSE) of a protein fragment."}, "[2]": {"system": "PC12 cells", "test": "Neurite sprouting assay (RSE), PC12 cells", "format": "cell-based, mouse", "conditions": "Conc. .07 μM, 24 hrs in culture", "procedure": "as §1, with “Equal numbers of test and control plates were incubated at 35.5° C. in a 95%/5% air/CO2 humified atmosphere, and then examined for neurite growth patterns at 18, 24 and 48 hr after the plating in a phase microscope at a magnification of 100 or 200 ×, as specified.” left out\nThe test to determine the degree of sprouting was carried out blind to determine (1) the total number of cells present in a given field of observation and (2) the percent of these that have zero and one or two or more process. Twelve microscope fields, each containing 50-100 cells, were randomly selected in each plate and cells counted according to the categories described above. […]"}, "[3]": {"system": "PC12 cells", "test": "Neurite elongation assay (REE), PC12 cells", "format": "cell-based, mouse", "procedure": "as §1, with “Equal numbers of test and control plates were incubated at 35.5° C. in a 95%/5% air/CO2 humified atmosphere, and then examined for neurite growth patterns at 18, 24 and 48 hr after the plating in a phase microscope at a magnification of 100 or 200 ×, as specified.” left out\n(§2) In each of the twelve microscope fields, the length of nerve cell processes (minimum length: 0.5 times the cell body length) was also measured to determine the percentage of nerve elongation after 24 hr. The percentage of total cells that developed a longest process equal to its cell body length was calculated according to the formula in Table V, supra. […]"}, "[4]": {"test": "Solubility observations", "format": "physicochemical", "conditions": "physiological pH values"}, "[5]": {"system": "NB2a/dl cells", "test": "Neurite elongation assay (REE), NB2a/dl cells", "format": "cell-based, mouse", "conditions": "Conc. 1000 μM, 24 hrs in culture", "procedure": "as §1, with “Equal numbers of test and control plates were incubated at 35.5° C. in a 95%/5% air/CO2 humified atmosphere, and then examined for neurite growth patterns at 18, 24 and 48 hr after the plating in a phase microscope at a magnification of 100 or 200 ×, as specified.” left out\nas §2"}}, "note": "Peptide text beside a SMILES is read from it."}
{"compound": "Nerve growth factor", "values": [{"measurement": "RSE (relative sprouting effect)", "setting": "[1]; Conc. 0.03 (μm)", "result": "1.76 ± .034"}, {"measurement": "RSE (relative sprouting effect)", "setting": "[1]; Conc. .07 (μm)", "result": "1.76 ± .07"}, {"measurement": "RSE (relative sprouting effect)", "setting": "[2]", "result": 2.9}, {"measurement": "REE (neurite elongation)", "setting": "[3]; Conc. .03 μM, 24 hrs in culture", "result": 3.30}, {"measurement": "effect on neurite elongation, result in words", "setting": "[3]; Table IV", "result": "most significant effects"}]}
{"compound": "CC(C)C[C@H](NC(=O)[C@@H](NC(=O)[C@H](CCC(=O)O)NC(=O)[C@H](CCCCN)NC(=O)[C@@H](N)CCCCN)[C@@H](C)O)C(=O)N[C@@H](CCC(N)=O)C(=O)N[C@@H](Cc1ccccc1)C(=O)N[C@@H](CCCNC(=N)N)C(=O)O", "note": "[compound 8933, Lys Lys Glu Thr Leu Gln Phe Arg] (H-KKETLQFR-OH)", "values": [{"measurement": "solubility in saline", "setting": "[4]", "result": "highly soluble"}]}
{"compound": "CCCC(=O)Nc1ncnc2c1ncn2[C@@H]1O[C@@H]2COP(=O)(O)O[C@H]2[C@H]1OC(=O)CCC", "note": "[dibutyryl cyclic AMP, reference compound]", "values": [{"measurement": "RSE (relative sprouting effect)", "setting": "[1]; Conc. 1000 (μm)", "result": 1.7}, {"measurement": "REE (neurite elongation)", "setting": "[5]", "result": 2.58}]}
